Measurements: article PMC12704298, “Divergent acetyl-CoA binding modes mediate allosteric inhibition of bacterial hybrid-type malic enzymes” (The Journal of Biological Chemistry, 2025)

How the values were obtained:
EcMaeB [1] = molecular target: T1, EcMaeB (Escherichia coli, UniProt P76558); assay: Acetyl-CoA IC50 plot against MaeB activity (spectrophotometric NADPH assay); assay type: biochemical
T1 construct: His-tag (C); made in house; host or cells: E. coli BL21(DE3)
T1 sequence (P76558 1-759): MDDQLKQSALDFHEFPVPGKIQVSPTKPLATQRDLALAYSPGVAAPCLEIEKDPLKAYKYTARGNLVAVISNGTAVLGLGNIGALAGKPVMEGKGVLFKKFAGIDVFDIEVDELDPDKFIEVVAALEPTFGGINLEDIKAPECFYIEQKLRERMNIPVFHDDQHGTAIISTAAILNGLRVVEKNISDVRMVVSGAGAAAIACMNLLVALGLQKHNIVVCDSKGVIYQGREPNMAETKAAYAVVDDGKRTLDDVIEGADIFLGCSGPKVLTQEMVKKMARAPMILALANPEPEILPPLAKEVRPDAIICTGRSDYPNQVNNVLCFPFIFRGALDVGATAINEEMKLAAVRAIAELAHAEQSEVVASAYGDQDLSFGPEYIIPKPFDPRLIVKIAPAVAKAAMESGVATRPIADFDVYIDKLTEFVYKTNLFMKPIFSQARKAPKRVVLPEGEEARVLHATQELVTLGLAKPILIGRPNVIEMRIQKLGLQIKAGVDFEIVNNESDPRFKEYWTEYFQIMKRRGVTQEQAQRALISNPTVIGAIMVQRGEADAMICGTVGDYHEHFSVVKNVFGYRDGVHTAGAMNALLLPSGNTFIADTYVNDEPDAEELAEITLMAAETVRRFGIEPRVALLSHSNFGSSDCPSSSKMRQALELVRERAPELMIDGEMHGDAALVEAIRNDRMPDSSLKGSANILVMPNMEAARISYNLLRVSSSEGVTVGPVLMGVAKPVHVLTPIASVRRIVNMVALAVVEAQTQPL
Experimental: (§1) Spectrophotometric assays were used to monitor the oxidative decarboxylation of L-malate to pyruvate using a SpectraMax M2, UV-Visible spectrophotometer (Molecular Devices) operated by SoftMax Pro Software with kinetic mode. All assays recorded the Δabsorbance at 340 nm (NADPH) at 30 °C. Assays were initiated by the addition of enzyme to the otherwise complete reaction mixture. […] Acetyl-CoA was tested at 5 μM.
(§2) The IC50 plot for Acetyl-CoA against MaeB activity was obtained by varying acetyl-CoA concentrations. The assay was performed in the standard reaction condition with 100 nM final enzyme concentration. The data were fitted to the four-parameter logistic model: v0=Bottom+Top−Bottom/1+([Acetyl-CoA]/IC50)^h where h means the Hill slope value and “Top” and “Bottom” corresponds to the maximum and minimum v0 of the fitted curve, respectively ([81]). Fitting was performed using Rstudio.

BbMaeB-SSB = BbMaeB-SSB (Bdellovibrio bacteriovorus, UniProt A0A1Z3N8R4); assay: as above; assay type: biochemical, Bdellovibrio bacteriovorus strain SSB218315
Experimental: as §1, §2

EcMaeB [2] = molecular target: T1, EcMaeB; assay: Enzyme kinetic parameters (Michaelis-Menten, substrate inhibition, empirical Hill plots); assay type: biochemical; settings: EcMaeB; versus malate, not conclusive
Experimental: as §1
(§3) For this substrate inhibition model, x should be fixed. […] The plots shown in Fig. S1F were fitted to the empirical Hill equation: v0=Vmax·[malate]^h/(K0.5h+[malate]^h) where K0.5 indicates the substrate concentration for half-saturation. When h is equal to 1, K0.5 matches Michaelis constant Km.

BbMaeB = molecular target: T2, BbMaeB (Bdellovibrio bacteriovorus, UniProt A0A1Z3N8R4); assay: as above; assay type: biochemical, Bdellovibrio bacteriovorus strain SSB218315; settings: versus malate
T2 sequence (A0A1Z3N8R4 1-776): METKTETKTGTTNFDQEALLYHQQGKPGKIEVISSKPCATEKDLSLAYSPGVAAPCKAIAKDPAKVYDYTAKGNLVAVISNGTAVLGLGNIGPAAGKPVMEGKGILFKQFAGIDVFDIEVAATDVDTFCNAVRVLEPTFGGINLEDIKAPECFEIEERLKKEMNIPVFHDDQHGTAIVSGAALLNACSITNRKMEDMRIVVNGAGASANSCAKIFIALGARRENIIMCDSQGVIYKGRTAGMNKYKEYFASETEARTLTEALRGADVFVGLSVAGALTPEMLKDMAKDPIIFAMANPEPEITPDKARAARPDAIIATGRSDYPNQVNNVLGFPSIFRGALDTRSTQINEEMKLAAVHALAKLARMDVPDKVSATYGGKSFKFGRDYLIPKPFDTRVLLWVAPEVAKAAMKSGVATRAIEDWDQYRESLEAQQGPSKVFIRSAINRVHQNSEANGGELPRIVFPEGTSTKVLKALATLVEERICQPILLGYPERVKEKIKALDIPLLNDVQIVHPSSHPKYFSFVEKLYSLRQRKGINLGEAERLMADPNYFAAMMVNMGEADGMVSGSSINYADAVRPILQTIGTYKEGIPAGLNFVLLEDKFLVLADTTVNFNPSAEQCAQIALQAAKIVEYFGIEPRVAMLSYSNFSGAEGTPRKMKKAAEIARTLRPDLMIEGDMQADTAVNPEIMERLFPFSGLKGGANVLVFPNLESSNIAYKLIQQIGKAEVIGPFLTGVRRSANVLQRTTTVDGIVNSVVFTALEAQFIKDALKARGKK
Experimental: as §1, §3

EcMaeB R475A/R482A/Y510A = test system: T3, EcMaeB R475A/R482A/Y510A; assay: %Activity assay with 5 μM acetyl-CoA; assay type: biochemical, Escherichia coli
T3 construct: His-tag (C); made in house; host or cells: E. coli BL21(DE3)
Experimental: (§4) Spectrophotometric assays were used to monitor the oxidative decarboxylation of L-malate to pyruvate using a SpectraMax M2, UV-Visible spectrophotometer (Molecular Devices) operated by SoftMax Pro Software with kinetic mode. All assays recorded the Δabsorbance at 340 nm (NADPH) at 30 °C. Assays were initiated by the addition of enzyme to the otherwise complete reaction mixture. […] Acetyl-CoA was tested at 5 μM. The results are presented as “%Activity”: a percentage of the measured activity in the presence of effector compared to the measured activity of MaeB under standard reaction conditions.

EcMaeB R475A/R482A = test system: T4, EcMaeB R475A/R482A; assay: %Activity assay with 5 μM acetyl-CoA; assay type: biochemical, Escherichia coli
T4 construct: His-tag (C); made in house; host or cells: E. coli BL21(DE3)
Experimental: as §4

EcMaeB R475A/Y510A = test system: T5, EcMaeB R475A/Y510A; assay: %Activity assay with 5 μM acetyl-CoA; assay type: biochemical, Escherichia coli
T5 construct: His-tag (C); made in house; host or cells: E. coli BL21(DE3)
Experimental: as §4

EcMaeB R475A = test system: T6, EcMaeB R475A; assay: %Activity assay with 5 μM acetyl-CoA; assay type: biochemical, Escherichia coli
T6 construct: His-tag (C); made in house; host or cells: E. coli BL21(DE3)
Experimental: as §4

EcMaeB R482A/Y510A = test system: T7, EcMaeB R482A/Y510A; assay: %Activity assay with 5 μM acetyl-CoA; assay type: biochemical, Escherichia coli
T7 construct: His-tag (C); made in house; host or cells: E. coli BL21(DE3)
Experimental: as §4

EcMaeB R482A = test system: T8, EcMaeB R482A; assay: %Activity assay with 5 μM acetyl-CoA; assay type: biochemical, Escherichia coli
T8 construct: His-tag (C); made in house; host or cells: E. coli BL21(DE3)
Experimental: as §4

EcMaeB WT = test system: T9, EcMaeB WT; assay: %Activity assay with 5 μM acetyl-CoA; assay type: biochemical, Escherichia coli
T9 construct: His-tag (C); made in house; host or cells: E. coli BL21(DE3)
Experimental: as §4

EcMaeB Y510A = test system: T10, EcMaeB Y510A; assay: %Activity assay with 5 μM acetyl-CoA; assay type: biochemical, Escherichia coli
T10 construct: His-tag (C); made in house; host or cells: E. coli BL21(DE3)
Experimental: as §4

BbMaeB-HD = test system: BbMaeB-HD; parameters: method as in PMID 33623032; settings: earlier study; cited from earlier work
DME = test system: DME; parameters: method as in PMID 10407149; settings: cited from earlier work
TME = test system: TME; parameters: method as in PMID 10407149; settings: cited from earlier work
AbMaeB1 = test system: AbMaeB1; parameters: method as in PMID 32485238; settings: AbMaeB1, compared to EcMaeB and BbMaeB; cited from earlier work
[3] = 5 mM L-malate, 0.5 mM NADP+, 1 μM enzyme
[4] = relative to WT without acetyl-CoA

**Q.** With `CC(=O)SCCNC(=O)CCNC(=O)[C@H](O)C(C)(C)COP(=O)(O)OP(=O)(O)OC[C@H]1O[C@@H](n2cnc3c(N)ncnc32)[C@H](O)[C@@H]1OP(=O)(O)O` [acetyl-CoA, acetyl coenzyme A] as the compound, how does the “Hill slope factor derived from the IC50 curve” value (EcMaeB [1]) read?
**A.** greater than one

**Q.** What about the IC50 (EcMaeB [1]; 5 mM L-malate, 0.5 mM NADP+, 5 mM MgCl2, 100 nM enzyme, 30 °C) of the same compound?
**A.** 102000 ± 4920 nM

**Q.** And the “Hill slope factor derived from the IC50 curve” value (BbMaeB-SSB; BbMaeB)?
**A.** greater than one

**Q.** What about the IC50 (BbMaeB-SSB; BbMaeB-SSB, 5 mM L-malate, 0.5 mM NADP+, 5 mM MgCl2, 100 nM enzyme, 30 °C) of the same compound?
**A.** 131 ± 4 nM

**Q.** And the mode of inhibition (EcMaeB [2])?
**A.** may follow a non-competitive mode

**Q.** And the mode of inhibition (BbMaeB)?
**A.** non-competitive

**Q.** And the “effect of acetyl-CoA on activity” value (EcMaeB R475A/R482A/Y510A)?
**A.** did not change their activity

**Q.** What about the “NADP^+ production, With Acetyl-CoA” value (EcMaeB R475A/R482A/Y510A; [3]) of the same compound?
**A.** 10.3 ± 0.4 µM/min

**Q.** And the “Activity (%), With Acetyl-CoA” value (EcMaeB R475A/R482A/Y510A; [4])?
**A.** 39.5 ± 1.4%

**Q.** And the “effect of acetyl-CoA on activity” value (EcMaeB R475A/R482A)?
**A.** did not change their activity

**Q.** And the “NADP^+ production, With Acetyl-CoA” value (EcMaeB R475A/R482A; [3])?
**A.** 10.7 ± 0.5 µM/min

**Q.** What about the “Activity (%), With Acetyl-CoA” value (EcMaeB R475A/R482A; [4]) of the same compound?
**A.** 40.8 ± 2.0%

**Q.** And the “NADP^+ production, With Acetyl-CoA” value (EcMaeB R475A/Y510A; [3])?
**A.** 31.9 ± 2.0 µM/min

**Q.** And the “Activity (%), With Acetyl-CoA” value (EcMaeB R475A/Y510A; [4])?
**A.** 121.9 ± 7.6%

**Q.** What about the “effect of acetyl-CoA on activity” value (EcMaeB R475A) of the same compound?
**A.** insensitive to allosteric inhibition

**Q.** And the “NADP^+ production, With Acetyl-CoA” value (EcMaeB R475A; [3])?
**A.** 21.6 ± 3.7 µM/min

**Q.** And the “Activity (%), With Acetyl-CoA” value (EcMaeB R475A; [4])?
**A.** 82.4 ± 14.0%

**Q.** What about the “effect of acetyl-CoA on activity” value (EcMaeB R482A/Y510A) of the same compound?
**A.** did not change their activity

**Q.** And the “NADP^+ production, With Acetyl-CoA” value (EcMaeB R482A/Y510A; [3])?
**A.** 7.0 ± 0.1 µM/min

**Q.** What about the “Activity (%), With Acetyl-CoA” value (EcMaeB R482A/Y510A; [4]) of the same compound?
**A.** 26.7 ± 0.5%

**Q.** And the “effect of acetyl-CoA on activity” value (EcMaeB R482A)?
**A.** did not change their activity

**Q.** What about the “NADP^+ production, With Acetyl-CoA” value (EcMaeB R482A; [3]) of the same compound?
**A.** 8.4 ± 1.4 µM/min

**Q.** And the “Activity (%), With Acetyl-CoA” value (EcMaeB R482A; [4])?
**A.** 32.3 ± 5.5%

**Q.** What about the “effect of acetyl-CoA on activity” value (EcMaeB WT) of the same compound?
**A.** reduced the activity by about half

**Q.** And the “NADP^+ production, With Acetyl-CoA” value (EcMaeB WT; [3])?
**A.** 12.1 ± 2.2 µM/min

**Q.** And the “Activity (%), With Acetyl-CoA” value (EcMaeB WT; [4])?
**A.** 46.4 ± 8.5%

**Q.** And the “effect of acetyl-CoA on activity” value (EcMaeB Y510A)?
**A.** insensitive to allosteric inhibition

**Q.** And the “NADP^+ production, With Acetyl-CoA” value (EcMaeB Y510A; [3])?
**A.** 19.4 ± 4.0 µM/min

**Q.** And the “Activity (%), With Acetyl-CoA” value (EcMaeB Y510A; [4])?
**A.** 74.0 ± 15.4%

**Q.** What about the IC50 (BbMaeB-HD) of the same compound?
**A.** 453 ± 19 nM

**Q.** What about the “effect on DME activity” value (DME) of the same compound?
**A.** inhibited

**Q.** What about the “allosteric regulation of TME” value (TME) of the same compound?
**A.** does not show any allosteric regulation

**Q.** What about the “allosteric inhibition of AbMaeB1” value (AbMaeB1) of the same compound?
**A.** requires higher concentrated acetyl-CoA to show allosteric inhibition
